This test addresses T1, Peroxisome proliferator-activated receptor gamma (Homo sapiens, UniProt P37231).
T1 sequence (P37231 whole entry): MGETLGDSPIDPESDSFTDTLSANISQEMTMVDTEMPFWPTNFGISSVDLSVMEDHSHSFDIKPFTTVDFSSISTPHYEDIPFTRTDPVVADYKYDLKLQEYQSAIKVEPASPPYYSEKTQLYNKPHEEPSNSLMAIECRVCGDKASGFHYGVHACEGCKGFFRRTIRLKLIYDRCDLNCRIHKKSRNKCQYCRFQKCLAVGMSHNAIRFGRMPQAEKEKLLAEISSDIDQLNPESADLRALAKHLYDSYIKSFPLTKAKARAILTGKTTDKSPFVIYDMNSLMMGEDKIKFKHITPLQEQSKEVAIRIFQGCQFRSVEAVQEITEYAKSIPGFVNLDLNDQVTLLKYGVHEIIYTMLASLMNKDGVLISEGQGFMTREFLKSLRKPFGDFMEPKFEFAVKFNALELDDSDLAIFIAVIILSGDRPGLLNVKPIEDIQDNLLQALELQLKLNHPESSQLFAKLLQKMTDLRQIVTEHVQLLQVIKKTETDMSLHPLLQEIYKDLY
Description: Agonist activity at Homo sapiens (human) PPARgamma expressed in mouse 3T3-L1 cells incubated for 2 days followed by compound wash out measured after 4 days by insulin receptor binding assay. The class given is cell-based.

Broadly, the EC50 is the concentration giving half of the maximal effect. Higher therefore signals lower potency in that assay. On to `CCOc1nc(-c2ccc(OCCCOc3ccc4c(c3)CC[C@H]4CC(=O)O)c(OC)c2)sc1CC`, for which the response was half-maximal at 0.178 µM (EC50).
